Results taken from patent publication US9839642B2, “Beta-tetrazolyl-propionic acids as metallo-beta-lactamase inhibitors” (priority 2014, dated 2017).
Read-outs that look alike come from different tables or passages of the source.

What was measured:
VIM-1 = VIM-1 (Pseudomonas aeruginosa, UniProt A0A0F7KYQ8); assay: Enzyme activity: determination of IC50, fluorescence assay with CCF2-FA substrate; format: biochemical; conditions: CCF2-FA 1.25 μM, 2 hours at 25° C., read-out: VIM1 IC50
In short: (§1)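 Enzyme at 1 pM (NDM-1), 2 pM (IMP-1) or 30 pM (VIM-1) was incubated with inhibitor (20 μM to 0.00063 μM) and 1.25 μM CCF2-FA in 100 mM KH2PO4 pH 7, 0.005% Tween-20, 10 μM ZnSO4 for 2 hours at 25° C. Fluorescence was read at ex 405/em 460 nm; IC50 from 4-parameter fit.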

IMP-1 = IMP-1 (Serratia marcescens, UniProt P52699); assay: as above; format: biochemical; conditions: CCF2-FA 1.25 μM, 2 hours at 25° C., read-out: IMP1 IC50
Sequence of IMP-1 (P52699 19-246, looked up, species assumed): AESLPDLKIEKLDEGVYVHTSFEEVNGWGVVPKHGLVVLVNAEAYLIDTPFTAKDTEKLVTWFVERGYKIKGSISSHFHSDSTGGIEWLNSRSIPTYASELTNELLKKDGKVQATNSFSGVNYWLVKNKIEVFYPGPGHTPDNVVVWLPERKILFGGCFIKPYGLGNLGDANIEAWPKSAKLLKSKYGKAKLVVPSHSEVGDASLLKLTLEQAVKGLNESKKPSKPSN
In short: as §1

NDM-1 = NDM-1 (Klebsiella pneumoniae, UniProt C7C422); assay: as above; format: biochemical; conditions: CCF2-FA 1.25 μM, 2 hours at 25° C.
Sequence of NDM-1 (C7C422 29-270, looked up, species assumed): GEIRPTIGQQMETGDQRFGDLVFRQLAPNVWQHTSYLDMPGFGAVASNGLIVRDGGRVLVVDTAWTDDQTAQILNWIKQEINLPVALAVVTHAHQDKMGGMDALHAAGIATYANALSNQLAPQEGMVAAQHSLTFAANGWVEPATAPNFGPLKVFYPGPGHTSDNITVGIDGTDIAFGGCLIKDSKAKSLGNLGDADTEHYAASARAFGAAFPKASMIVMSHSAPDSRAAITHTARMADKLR
In short: as §1

[1] = test system: Klebsiella pneumoniae expressing VIM-1 (IHMA599644); assay: Antibiotic potentiation activity: synergistic concentration (MITC95) with imipenem, growth by OD600; format: cell-based
In short: (§2)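 Colonies from overnight agar plates (35 °C) were suspended in saline and diluted 1:100 into 1.1× CAMHB. Inhibitor (final 200 μM to 0.195 μM) was combined with imipenem at 1 or 4 μg/ml, incubated 22–24 h at 35 °C, and absorbance read; MITC95 is the lowest inhibitor concentration giving 95% growth inhibition.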

[2] = test system: Escherichia coli expressing NDM-1 (CLB30016); assay: as above; format: cell-based
In short: as §2

[3] = test system: Serratia marcescens expressing IMP-1 (CL5741); assay: as above; format: cell-based
In short: as §2

[4] = NDM-1 enzyme 1 pM, read-out: NDM1 IC50
[5] = K. pneumoniae IHMA599644 (VIM-1), 95% inhibition of growth
[6] = E. coli CLB30016 (NDM-1), 95% inhibition of growth
[7] = S. marcescens CL5741 (IMP-1), 95% inhibition of growth
[8] = enzyme 1 pM, read-out: NDM1 IC50
[9] = 95% inhibition of bacterial growth, strain IHMA599644
[10] = 95% inhibition of bacterial growth, strain CLB30016
[11] = 95% inhibition of bacterial growth, strain CL5741

Structure (SMILES)	IC50 (VIM-1; VIM-1 enzyme 30 pM) [nM]	IC50 (IMP-1; IMP-1 enzyme 2 pM) [nM]	IC50 (NDM-1; [4]) [nM]	VIM1 KP599644 MITC95 [1, 5] [µM]	NDM1 EC30016 MITC95 [2, 6] [µM]	IMP1 SM5741 MITC95 [3, 7] [µM]	IC50 (VIM-1; enzyme 30 pM) [nM]	IC50 (IMP-1; enzyme 2 pM) [nM]	IC50 (NDM-1; [8]) [nM]	VIM1 KP599644 MITC95 [1, 9] [µM]	NDM1 EC30016 MITC95 [2, 10] [µM]	IMP1 SM5741 MITC95 [3, 11] [µM]	IC50 (NDM-1; NDM1 IC50, enzyme 1 pM) [nM]
CC(C)C[C@H](C(=O)O)[C@H](Cc1ccc(N2CC(C(C)(C)O)C2)nc1)c1nnn[nH]1 [Example 331, (2S)-2-[(1S)-2-{6-[3-(1-hydroxy-1-methylethyl)azetidin-1-yl]pyridin-3-yl}-1-(1H-tetrazol-5-yl)ethyl]-4-methylpentanoic acid]	49	340	130	100	9.4	18.8	–	–	–	–	–	–	–
CC(C)[C@H](C(=O)O)[C@H](Cc1ccc(N)cn1)c1nnn[nH]1 [Example 125, (2S,3S)-4-(5-aminopyridin-2-yl)-2-isopropyl-3-(1H-tetrazol-5-yl)butanoic acid]	–	–	–	–	–	–	240	12000	170	12.5	0.39	75	–
CCC[C@H](C(=O)O)[C@H](Cc1ccc(O)nc1)c1nnn[nH]1 [Example 157, (S)-2-((S)-2-(6-hydroxypyridin-3-yl)-1-(1H-tetrazol-5-yl)ethyl)pentanoic acid]	–	–	–	–	–	–	8.5	12000	730	25	18.8	>200	–
CCC[C@H](C(=O)O)[C@H](Cc1ccc(C2CCN(C=N)C2)nc1)c1nnn[nH]1 (stereo partly drawn) [Example 410, (2S)-2-((1S)-2-(6-(1-(iminomethyl)pyrrolidin-3-yl)pyridin-3-yl)-1-(1H-tetrazol-5-yl)ethyl)pentanoic acid]	6.23	6030	417	25	7.813	75	–	–	–	–	–	–	–
CC(C)C[C@H](C(=O)O)[C@H](Cc1ccc(OCCN)nc1)c1nnn[nH]1 [Example 135, (S)-2-((S)-2-(6-(2-aminoethoxy)pyridin-3-yl)-1-(1H-tetrazol-5-yl)ethyl)-4-methylpentanoic acid]	–	–	–	–	–	–	6.1	1600	490	25	6.2	25	–
CC(C)C[C@H](C(=O)O)[C@H](Cc1ccc(N2CCC3(CC2)CNC3)nc1)c1nnn[nH]1 [Example 308, (2S)-2-[(1S)-2-[6-(2,7-diazaspiro[3.5]non-7-yl)pyridin-3-yl]-1-(1H-tetrazol-5-yl)ethyl]-4-methylpentanoic acid]	32	370	120	25	3.1	9.4	–	–	–	–	–	–	–
CCC[C@H](C(=O)O)[C@H](Cc1ccc(NCc2ccc(O)cc2)nc1)c1nnn[nH]1 [Example 132, (S)-2-((S)-2-(6-((4-hydroxybenzyl)amino)pyridin-3-yl)-1-(1H-tetrazol-5-yl)ethyl)pentanoic acid]	–	–	–	–	–	–	31	1500	160	25	9.4	38	–
CCC[C@H](C(=O)O)[C@H](Cc1ccccc1-c1ccc(NS(C)(=O)=O)cc1)c1nn[nH]n1 [Example 402, (2S)-2-[(1S)-2-{4′-[(methylsulfonyl)amino]biphenyl-2-yl}-1-(2H-tetrazol-5-yl)ethyl]pentanoic acid]	1.5	230	0.095	25	3.1	12.5	–	–	–	–	–	–	–
CC(C)[C@H](C(=O)O)[C@H](Cc1ccc(N2CCC[C@@H]2CO)nc1)c1nnn[nH]1 [Example 127, (2S,3S)-4-(6-((R)-2-(hydroxymethyl)pyrrolidin-1-yl)pyridin-3-yl)-2-isopropyl-3-(1H-tetrazol-5-yl)butanoic acid]	–	–	–	–	–	–	280	10000	320	200	12.5	200	–
CC(C)[C@H](C(=O)O)[C@H](Cc1ccc(C2CCNCC2)nc1)c1nnn[nH]1 [Example 104, (2S,3S)-2-isopropyl-4-(6-(piperidin-4-yl)pyridin-3-yl)-3-(1H-tetrazol-5-yl)butanoic acid]	–	–	–	–	–	–	14	7000	180	18.8	3.1	37	–
CC(C)C[C@H](C(=O)O)[C@H](Cc1ccc(N[C@H]2CC[C@H](N)C2)nc1)c1nnn[nH]1 [Example 317, (2S)-2-[(1S)-2-(6-{[(1S,3S)-3-aminocyclopentyl]amino}pyridin-3-yl)-1-(1H-tetrazol-5-yl)ethyl]-4-methylpentanoic acid]	14	1600	350	18.8	1.6	12.5	–	–	–	–	–	–	–
CCC[C@H](C(=O)O)[C@H](Cc1ccc(NCCN2CCN(C(C)C)CC2)cc1)c1nn[nH]n1 [Example 219, (2S)-2-[(1S)-2-[4-({2-[4-(1-methylethyl)piperazin-1-yl]ethyl}amino)phenyl]-1-(2H-tetrazol-5-yl)ethyl]pentanoic acid]	–	–	–	–	–	–	93	1000	210	100	25	25	–
CC(C)C[C@H](C(=O)O)[C@H](Cc1cc(Cl)nc(NCCO)c1)c1nnn[nH]1 [Example 407]	2.22	923	34.4	50	18.75	75	–	–	–	–	–	–	–
CC(C)C[C@H](C(=O)O)[C@H](Cc1ccc(-c2ccc([C@@H]3OC(=O)N[C@@H]3C)cc2)cn1)c1nn[nH]n1 [Example 173, (2S)-4-methyl-2-[(1S)-2-(5-{4-[(4R,5S)-4-methyl-2-oxo-1,3-oxazolidin-5-yl]phenyl}pyridin-2-yl)-1-(2H-tetrazol-5-yl)ethyl]pentanoic acid]	–	–	–	–	–	–	110	500	27	>200	25	31	–
CC(C)C[C@H](C(=O)O)[C@H](Cc1ccc(CN2CCC(O)C2)c(F)c1)c1nn[nH]n1.O=C(O)C(F)(F)F (stereo partly drawn) [Example 439, 5-((2S,3S)-3-carboxy-1-(3-fluoro-4-((3-hydroxypyrrolidin-1-yl)methyl)phenyl)-5-methylhexan-2-yl)-2H-tetrazol-3-ium 2,2,2-trifluoroacetate]	4.32	483	225	37.5	31.25	37.5	–	–	–	–	–	–	–
CC(C)C[C@H](C(=O)O)[C@H](Cc1ccc(N2CC(N3CCOCC3)C2)nc1)c1nnn[nH]1 [Example 329, (2S)-4-methyl-2-[(1S)-2-[6-(3-morpholin-4-ylazetidin-1-yl)pyridin-3-yl]-1-(1H-tetrazol-5-yl)ethyl]pentanoic acid]	49	450	170	>200	12.5	25	–	–	–	–	–	–	–
CCC[C@H](C(=O)O)[C@H](Cc1ccc(C2=CCNCC2)cn1)c1nnn[nH]1 [Example 165, (2S)-2-[(1S)-2-(1′,2′,3′,6′-tetrahydro-3,4′-bipyridin-6-yl)-1-(1H-tetrazol-5-yl)ethyl]pentanoic acid]	–	–	–	–	–	–	68	> 20000	–	25	3.1	150	1500
CC(C)C[C@H](C(=O)O)[C@H](Cc1ccc(N2CCNCC2)c(F)c1)c1nn[nH]n1 [Example 146, (S)-2-((S)-2-(3-fluoro-4-(piperazin-1-yl)phenyl)-1-(2H-tetrazol-5-yl)ethyl)-4-methylpentanoic acid]	–	–	–	–	–	–	1.6	100	36	15.6	6.2	5.5	–
CCC[C@H](C(=O)O)[C@H](Cc1ccc(C)cc1)c1nn[nH]n1 [Example 52, (S)-2-((S)-1-(2H-tetrazol-5-yl)-2-(p-tolyl)ethyl)pentanoic acid]	–	–	–	–	–	–	10	680	87	25	18.8	18.8	–
